Assay results reported in patent US7642221B2, “Substituted thien-3-yl-sulphonylamino(thio)carbonyl-triazoline(ethi)ones” (Bayer Aktiengesellschaft, priority 1999, dated 2010).

Experiments:
weeds [1] = assay: Post-emergence test, activity against weeds; type: in vivo
Description: (§1) • Solvent: 5 parts by weight of acetone • Emulsifier: 1 part by weight of alkylaryl polyglycol ether
(§2) To produce a suitable preparation of active compound, one part by weight of active compound is mixed with the stated amount of solvent, the stated amount of emulsifier is added and the concentrate is diluted with water to the desired concentration.
(§3) Test plants which have a height of 5-15 cm are sprayed with the preparation of active compound such that the particular amounts of active compound desired are applied per unit area. The concentration of the spray liquor is chosen so that the particular amounts of active compound desired are applied in 1000 l of water/ha.
(§4) After three weeks, the degree of damage to the plants is rated in % damage in comparison to the development of the untreated control.
(§5) The figures denote: • 0%=no effect (like untreated control) • 100%=total destruction

weeds [2] = assay: Pre-emergence test, activity against weeds; type: in vivo
Description: as §1
(§6) To produce a suitable preparation of active compound, 1 part by weight of active compound is mixed with the stated amount of solvent, the stated amount of emulsifier is added and the concentrate is diluted with water to the desired concentration.
(§7) Seeds of the test plants are sown in normal soil. After about 24 hours, the soil is sprayed with the preparation of active compound such that the particular amount of active compound desired is applied per unit area. The concentration of the spray liquor is chosen so that the particular amount of active compound desired is applied in 1000 liters of water per hectare.
as §4
(§8) The figure denote: • 0%=no effect (like untreated control) • 100%=total destruction

Setaria [3] = assay: Post-emergence test/greenhouse; type: in vivo; settings: greenhouse, rated after three weeks
Description: as §1, §2, §3, §4, §5

Amaranthus [4] = assay: Post-emergence test/greenhouse; type: in vivo; settings: greenhouse, rated after three weeks
Description: as §1, §2, §3, §4, §5

Abutilon [5] = assay: Post-emergence test/greenhouse; type: in vivo; settings: greenhouse, rated after three weeks
Description: as §1, §2, §3, §4, §5

Avenafatua = assay: Post-emergence test/greenhouse; type: in vivo; settings: greenhouse, rated after three weeks
Description: as §1, §2, §3, §4, §5

Alopecurus [6] = assay: Post-emergence test/greenhouse; type: in vivo; settings: greenhouse, rated after three weeks
Description: as §1, §2, §3, §4, §5

Sinapis [7] = assay: Post-emergence test/greenhouse; type: in vivo; settings: greenhouse, rated after three weeks
Description: as §1, §2, §3, §4, §5

Xanthium [8] = assay: Post-emergence test/greenhouse; type: in vivo; settings: greenhouse, rated after three weeks
Description: as §1, §2, §3, §4, §5

Veronica = assay: Pre-emergence test/greenhouse; type: in vivo; settings: greenhouse, 60 g of ai/ha, rated after three weeks
Description: as §1, §6, §7, §4, §8

Viola = assay: Pre-emergence test/greenhouse; type: in vivo; settings: greenhouse, 60 g of ai/ha, rated after three weeks
Description: as §1, §6, §7, §4, §8

Setaria [9] = assay: Pre-emergence test/greenhouse; type: in vivo; settings: greenhouse, rated after three weeks
Description: as §1, §6, §7, §4, §8

Matricaria = assay: Pre-emergence test/greenhouse; type: in vivo; settings: greenhouse, 60 g of ai/ha, rated after three weeks
Description: as §1, §6, §7, §4, §8

Chenopodium = assay: Pre-emergence test/greenhouse; type: in vivo; settings: greenhouse, 60 g of ai/ha, rated after three weeks
Description: as §1, §6, §7, §4, §8

Bromus = assay: Pre-emergence test/greenhouse; type: in vivo; settings: greenhouse, 60 g of ai/ha, rated after three weeks
Description: as §1, §6, §7, §4, §8

Alopecurus [10] = assay: Pre-emergence test/greenhouse; type: in vivo; settings: greenhouse, rated after three weeks
Description: as §1, §6, §7, §4, §8

Stellaria = assay: Pre-emergence test/greenhouse; type: in vivo; settings: greenhouse, 60 g of ai/ha, rated after three weeks
Description: as §1, §6, §7, §4, §8

Amaranthus [11] = assay: Pre-emergence test/greenhouse; type: in vivo; settings: greenhouse, rated after three weeks
Description: as §1, §6, §7, §4, §8

Abutilon [12] = assay: Pre-emergence test/greenhouse; type: in vivo; settings: greenhouse, rated after three weeks
Description: as §1, §6, §7, §4, §8

Cyperus = assay: Pre-emergence test/greenhouse; type: in vivo; settings: greenhouse, rated after three weeks
Description: as §1, §6, §7, §4, §8

Sinapis [13] = assay: Pre-emergence test/greenhouse; type: in vivo; settings: greenhouse, rated after three weeks
Description: as §1, §6, §7, §4, §8

Xanthium [14] = assay: Pre-emergence test/greenhouse; type: in vivo; settings: greenhouse, rated after three weeks
Description: as §1, §6, §7, §4, §8

Galium = assay: Pre-emergence test/greenhouse; type: in vivo; settings: greenhouse, 250 g of ai/ha, rated after three weeks
Description: as §1, §6, §7, §4, §8

Maize = assay: Pre-emergence test/greenhouse; type: in vivo; settings: greenhouse, 60 g of ai/ha, rated after three weeks
Description: as §1, §6, §7, §4, §8

Row | Structure (SMILES) | activity against weeds (weeds [1]) | activity against weeds (weeds [2]) | degree of damage to the plants, Setaria (Setaria [3]; 250 g of ai/ha) [%] | degree of damage to the plants, Amaranthus (Amaranthus [4]; 250 g of ai/ha) [%] | degree of damage to the plants, Abutilon (Abutilon [5]; 250 g of ai/ha) [%] | degree of damage to the plants, Avenafatua (Avenafatua; 250 g of ai/ha) [%] | degree of damage to the plants, Alopecurus (Alopecurus [6]; 250 g of ai/ha) [%] | degree of damage to the plants, Sinapis (Sinapis [7]; 250 g of ai/ha) [%] | degree of damage to the plants, Xanthium (Xanthium [8]; 250 g of ai/ha) [%] | degree of damage to the plants, Veronica (Veronica) [%] | degree of damage to the plants, Viola (Viola) [%] | degree of damage to the plants, Setaria (Setaria [9]; 60 g of ai/ha) [%] | degree of damage to the plants, Bromus (Bromus) [%] | degree of damage to the plants, Setaria (Setaria [9]; 250 g of ai/ha) [%] | degree of damage to the plants, Amaranthus (Amaranthus [11]; 250 g of ai/ha) [%] | degree of damage to the plants, Abutilon (Abutilon [12]; 250 g of ai/ha) [%] | degree of damage to the plants, Galium (Galium) [%] | degree of damage to the plants, Cyperus (Cyperus; 250 g of ai/ha) [%] | degree of damage to the plants, Alopecurus (Alopecurus [10]; 250 g of ai/ha) [%] | degree of damage to the plants, Sinapis (Sinapis [13]; 250 g of ai/ha) [%] | further results
1 | CCOc1nn(C(=O)NS(=O)(=O)c2c(C(=O)OC)csc2C)c(=O)n1C [Example 1, methyl 4-[[[(3-ethoxy-4,5-dihydro-4-methyl-5-oxo-1H-1,2,4-triazol-1-yl)-carbonyl]-amino]-sulphonyl]-5-methyl-thiophene-3-carboxylate] | very strong activity | very strong activity | 100 | 100 | 100 | 100 | 100 | 100 | 100 | 100 | 100 | 90 | 90 |  |  |  |  |  |  |  | degree of damage to the plants, Matricaria (Matricaria): 95%; degree of damage to the plants, Chenopodium (Chenopodium): 100%; degree of damage to the plants, Alopecurus (Alopecurus [10]; 60 g of ai/ha): 90%; degree of damage to the plants, Stellaria (Stellaria): 95%; melting point: 163 °C
2 | COC(=O)c1csc(C)c1S(=O)(=O)NC(=O)n1nc(OC)n(C)c1=O [Example 2] | very strong activity | very strong activity |  |  |  |  |  |  |  |  |  | 95 |  |  |  |  |  |  |  |  | degree of damage to the plants, Setaria (Setaria [3]; 60 g of ai/ha): 100%; degree of damage to the plants, Amaranthus (Amaranthus [4]; 60 g of ai/ha): 100%; degree of damage to the plants, Abutilon (Abutilon [5]; 60 g of ai/ha): 100%; degree of damage to the plants, Avenafatua (Avenafatua; 60 g of ai/ha): 80%; degree of damage to the plants, Alopecurus (Alopecurus [6]; 60 g of ai/ha): 95%; degree of damage to the plants, Sinapis (Sinapis [7]; 60 g of ai/ha): 100%; degree of damage to the plants, Xanthium (Xanthium [8]; 60 g of ai/ha): 100%; degree of damage to the plants, Amaranthus (Amaranthus [11]; 60 g of ai/ha): 100%; degree of damage to the plants, Abutilon (Abutilon [12]; 60 g of ai/ha): 95%; degree of damage to the plants, Cyperus (Cyperus; 60 g of ai/ha): 100%; degree of damage to the plants, Alopecurus (Alopecurus [10]; 60 g of ai/ha): 95%; degree of damage to the plants, Sinapis (Sinapis [13]; 60 g of ai/ha): 95%; degree of damage to the plants, Xanthium (Xanthium [14]; 60 g of ai/ha): 100%
3 | CCOc1nn(C(=O)NS(=O)(=O)c2c(C(=O)OC)csc2C)c(=O)n1C1CC1 [Example 6] | very strong activity | very strong activity | 100 | 100 | 100 | 100 | 100 | 100 | 100 |  |  |  |  | 100 | 95 | 100 | 90 | 100 | 95 | 95 | degree of damage to the plants, Xanthium (Xanthium [14]; 250 g of ai/ha): 95%
4 | CCCOc1nn(C(=O)NS(=O)(=O)c2c(C(=O)OC)csc2C)c(=O)n1C1CC1 [Example 7] | very strong activity | very strong activity | 90 | 100 | 100 | 100 | 95 | 100 | 90 |  |  |  |  | 95 | 95 | 95 | 95 | 100 | 90 | 95 | 
5 | COC(=O)c1csc(C)c1S(=O)(=O)NC(=O)n1nc(C2CC2)n(C2CC2)c1=O [Example 9] | very strong activity | very strong activity | 100 | 100 | 100 | 100 | 100 | 100 | 100 |  |  |  |  | 100 | 100 | 100 | 95 | 100 | 95 | 95 | 
6 | COC(=O)c1csc(C)c1S(=O)(=O)NC(=O)n1nc(SC)n(C)c1=O [Example 12] | very strong activity | very strong activity | 100 | 100 | 100 | 100 | 95 | 100 | 100 | 100 | 100 | 100 | 100 |  |  |  |  |  |  |  | degree of damage to the plants, Maize (Maize): 10%; degree of damage to the plants, Abutilon (Abutilon [12]; 60 g of ai/ha): 100%; degree of damage to the plants, Cyperus (Cyperus; 60 g of ai/ha): 100%; degree of damage to the plants, Stellaria (Stellaria): 100%
